According to patent publication US20160287589A1, “SUBSTITUTED-IMIDAZOPYRIDAZINES” (BAYER PHARMA AKTIENGESELLSCHAFT, priority 2013, published 2016):

Assays:
MKNK1 [1] = target: T1, MKNK1 (Homo sapiens, UniProt Q9BUB5, T385D); experiment: MKNK1 kinase assay (MKNK1 TR-FRET assay); assay type: biochemical; conditions: Table 1a; 10 μM ATP, 15 min preincubation
T1 construct: GST (N); purchased Carna Biosciences 02-145; host or cells: insect cells (baculovirus expression system)
Description: MKNK1-inhibitory activity of compounds of the present invention was quantified employing the MKNK1 TR-FRET assay as described in the following paragraphs.
A recombinant fusion protein of Glutathione-S-Transferase (GST, N-terminally) and human full-lengt MKNK1 (amino acids 1-424 and T344D of accession number BAA 19885.1), expressed in insect cells using baculovirus expression system and purified via glutathione sepharose affinity chromatography, was purchased from Carna Biosciences (product no 02-145) and used as enzyme. As substrate for the kinase reaction the biotinylated peptide biotin-Ahx-IKKRKLTRRKSLKG (C-terminus in amide form) was used which can be purchased e.g. form the company Biosyntan (Berlin-Buch, Germany).
For the assay 50 nL of a 100 fold concentrated solution of the test compound in DMSO was pipetted into a black low volume 384 well microtiter plate (Greiner Bio-One, Frickenhausen, Germany), 2 μL of a solution of MKNK1 in aqueous assay buffer [50 mM HEPES pH 7.5, 5 mM magnesium chloride, 1.0 mM dithiothreitol, 0.005% (v/v) Nonidet-P40 (Sigma)] was added and the mixture was incubated for 15 min at 22° C. to allow pre-binding of the test compounds to the enzyme before the start of the kinase reaction. […] The concentration of MKNK1 was adjusted depending of the activity of the enzyme lot and was chosen appropriate to have the assay in the linear range, typical concentrations were in the range of […]. The reaction was stopped by the addition of 5 μL of a solution of TR-FRET detection reagents (5 nM streptavidine-XL665 [Cisbio Bioassays, Codolet, France] and 1 nM anti-ribosomal protein S6 (pSer236)-antibody from Invitrogen [#44921G] and 1 nM LANCE EU-W1024 labeled ProteinG [Perkin-Elmer, product no. AD0071]) in an aqueous EDTA-solution (100 mM EDTA, 0.1% (w/v) bovine serum albumin in 50 mM HEPES pH 7.5).
The resulting mixture was incubated for 1 h at 22° C. to allow the formation of complex between the phosphorylated biotinylated peptide and the detection reagents. Subsequently the amount of phosphorylated substrate was evaluated by measurement of the resonance energy transfer from the Eu-chelate to the streptavidine-XL. Therefore, the fluorescence emissions at 620 nm and 665 nm after excitation at 350 nm were measured in a TR-FRET reader, e.g. a Rubystar (BMG Labtechnologies, Offenburg, Germany) or a Viewlux (Perkin-Elmer). The ratio of the emissions at 665 nm and at […] was taken as the measure for the amount of phosphorylated substrate. The data were normalised (enzyme reaction without inhibitor=0% inhibition, all other assay components but no enzyme=100% inhibition).

MKNK1 [2] = target: T1, MKNK1; experiment: MKNK1 kinase high ATP assay (TR-FRET-based); assay type: biochemical; conditions: Table 2a; 2 mM ATP, 15 min preincubation
In short: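 GST-tagged full-length human MKNK1 (aa 1-424, T344D) from insect cells, preincubated with compound 15 min at 22 °C. Reaction 30 min at 22 °C with 2 mM ATP and 0.06 μM biotinylated peptide in HEPES pH 7.5, Mg2+, DTT. Phosphopeptide detected by TR-FRET (665/622 ratio) with anti-pS6 (pSer236) antibody; normalised to no-inhibitor and no-enzyme controls.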

T1 sequence (Q9BUB5 1-424 isoform Q9BUB5-2 T344D): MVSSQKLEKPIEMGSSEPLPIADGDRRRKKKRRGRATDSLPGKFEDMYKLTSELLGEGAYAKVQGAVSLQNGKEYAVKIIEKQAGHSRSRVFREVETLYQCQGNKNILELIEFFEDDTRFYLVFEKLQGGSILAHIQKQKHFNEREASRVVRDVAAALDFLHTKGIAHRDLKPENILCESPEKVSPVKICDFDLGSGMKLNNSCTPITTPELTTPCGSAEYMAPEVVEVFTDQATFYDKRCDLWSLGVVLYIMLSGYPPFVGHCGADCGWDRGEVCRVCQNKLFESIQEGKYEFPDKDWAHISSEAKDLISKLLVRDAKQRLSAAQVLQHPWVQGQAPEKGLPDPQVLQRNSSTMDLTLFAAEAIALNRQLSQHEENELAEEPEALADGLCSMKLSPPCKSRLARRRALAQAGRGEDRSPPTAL

O=C1CNC[C@H](COc2ccc3ncc(-c4cc5ccccc5o4)n3n2)N1 [Example I-42, (6R)-6-({[3-(1-Benzofuran-2-yl)imidazo[1,2-b]pyridazin-6yl]oxy}methyl)-piperazin-2-one]
IC50 (MKNK1 [1]): 14.2 nM | IC50 (MKNK1 [2]): 26.8 nM

O=C(c1cccs1)N1CCC[C@H]1CCOc1ccc2ncc(-c3cc4ccccc4o3)n2n1 [Example I-43, [(2S)-2-(2-{[3-(1-Benzofuran-2-yl)imidazo[1,2-b]pyridazin-6-yl]oxy}ethyl)pyrrolidin-1-yl](thiophen-2-yl)methanone]
IC50 (MKNK1 [1]): 1 nM | IC50 (MKNK1 [2]): 1.3 nM

CCC(=O)N1CCC[C@H]1CCOc1ccc2ncc(-c3cc4ccccc4o3)n2n1 [Example I-44, 1-[(2S)-2-(2-{[3-(1-Benzofuran-2-yl)imidazo[1,2-b]-pyridazin-6-yl]oxy}ethyl)pyrrolidin-1-yl]propan-1-one]
IC50 (MKNK1 [1]): 1.1 nM | IC50 (MKNK1 [2]): 1.7 nM

O=C(c1cnoc1)N1CCC[C@H]1CCOc1ccc2ncc(-c3cc4ccccc4o3)n2n1 [Example I-45, [(2S)-2-(2-{[3-(1-Benzofuran-2-yl)imidazo[1,2-b]-pyridazin-6-yl]oxy}ethyl)pyrrolidin-1-yl](1,2-oxazol-4-yl)methanone]
IC50 (MKNK1 [1]): 1.3 nM | IC50 (MKNK1 [2]): 1.8 nM

CC(C)(C)C(=O)N1CCC[C@H]1CCOc1ccc2ncc(-c3cc4ccccc4o3)n2n1 [Example I-46, 1-[(2S)-2-(2-{[3-(1-Benzofuran-2-yl)imidazo[1,2-b]-pyridazin-6-yl]oxy}ethyl)pyrrolidin-1-yl]-2,2-dimethylpropan-1-one]
IC50 (MKNK1 [1]): 1.2 nM | IC50 (MKNK1 [2]): 1.9 nM

O=C(c1ccno1)N1CCC[C@H]1CCOc1ccc2ncc(-c3cc4ccccc4o3)n2n1 [Example I-47, [(2S)-2-(2-{[3-(1-Benzofuran-2-yl)imidazo[1,2-b]-pyridazin-6-yl]oxy}ethyl)pyrrolidin-1-yl](1,2-oxazol-5-yl)methanone]
IC50 (MKNK1 [1]): 1.6 nM | IC50 (MKNK1 [2]): 2.2 nM

Cn1cc(C(=O)N2CCC[C@H]2CCOc2ccc3ncc(-c4cc5ccccc5o4)n3n2)cn1 [Example I-48, [(2S)-2-(2-{[3-(1-Benzofuran-2-yl)imidazo[1,2-b]-pyridazin-6-yl]oxy}ethyl)pyrrolidin-1-yl](1-methyl-1H-pyrazol-4-yl)methanone]
IC50 (MKNK1 [1]): 1.8 nM | IC50 (MKNK1 [2]): 2.3 nM

O=C(c1ccco1)N1CCC[C@H]1CCOc1ccc2ncc(-c3cc4ccccc4o3)n2n1 [Example I-49, [(2S)-2-(2-{[3-(1-Benzofuran-2-yl)imidazo[1,2-b]-pyridazin-6-yl]oxy}ethyl)pyrrolidin-1-yl](furan-2-yl)methanone]
IC50 (MKNK1 [1]): 1.1 nM | IC50 (MKNK1 [2]): 2.4 nM

Cn1ccc(C(=O)N2CCC[C@H]2CCOc2ccc3ncc(-c4cc5ccccc5o4)n3n2)n1 [Example I-50, [(2S)-2-(2-{[3-(1-Benzofuran-2-yl)imidazo[1,2-b]-pyridazin-6-yl]oxy}ethyl)pyrrolidin-1-yl](1-methyl-1H-pyrazol-3-yl)methanone]
IC50 (MKNK1 [1]): 2.4 nM | IC50 (MKNK1 [2]): 3.2 nM

O=C(CC1CC1)N1CCC[C@H]1CCOc1ccc2ncc(-c3cc4ccccc4o3)n2n1 [Example I-51, 1-[(2S)-2-(2-{[3-(1-Benzofuran-2-yl)imidazo[1,2-b]-pyridazin-6-yl]oxy}ethyl)pyrrolidin-1-yl]-2-cyclopropylethanone]
IC50 (MKNK1 [1]): 2.1 nM | IC50 (MKNK1 [2]): 3.2 nM

Cc1nocc1C(=O)N1CCC[C@H]1CCOc1ccc2ncc(-c3cc4ccccc4o3)n2n1 [Example I-52, [(2S)-2-(2-{[3-(1-Benzofuran-2-yl)imidazo[1,2-b]-pyridazin-6-yl]oxy}ethyl)pyrrolidin-1-yl](3-methyl-1,2-oxazol-4-yl)methanone]
IC50 (MKNK1 [1]): 1.7 nM | IC50 (MKNK1 [2]): 3.4 nM

O=C(C1CCCO1)N1CCC[C@H]1CCOc1ccc2ncc(-c3cc4ccccc4o3)n2n1 (stereo partly drawn) [Example I-53, [(2S)-2-(2-{[3-(1-Benzofuran-2-yl)imidazo[1,2-b]-pyridazin-6-yl]oxy}ethyl)pyrrolidin-1-yl](tetrahydrofuran-2-yl)methanone]
IC50 (MKNK1 [1]): 2.4 nM | IC50 (MKNK1 [2]): 3.5 nM

O=C(C1CCC1)N1CCC[C@H]1CCOc1ccc2ncc(-c3cc4ccccc4o3)n2n1 [Example I-54, [(2S)-2-(2-{[3-(1-Benzofuran-2-yl)imidazo[1,2-b]-pyridazin-6-yl]oxy}ethyl)pyrrolidin-1-yl](cyclobutyl)methanone]
IC50 (MKNK1 [1]): 2 nM | IC50 (MKNK1 [2]): 3.7 nM

O=C(c1ccon1)N1CCC[C@H]1CCOc1ccc2ncc(-c3cc4ccccc4o3)n2n1 [Example I-55, [(2S)-2-(2-{[3-(1-Benzofuran-2-yl)imidazo[1,2-b]-pyridazin-6-yl]oxy}ethyl)pyrrolidin-1-yl](1,2-oxazol-3-yl)methanone]
IC50 (MKNK1 [1]): 2.1 nM | IC50 (MKNK1 [2]): 3.8 nM

O=C(C1CCCC1)N1CCC[C@H]1CCOc1ccc2ncc(-c3cc4ccccc4o3)n2n1 [Example I-56, [(2S)-2-(2-{[3-(1-Benzofuran-2-yl)imidazo[1,2-b]-pyridazin-6-yl]oxy}ethyl)pyrrolidin-1-yl](cyclopentyl)-methanone]
IC50 (MKNK1 [1]): 4 nM | IC50 (MKNK1 [2]): 3.8 nM

O=C(c1ccsc1)N1CCC[C@H]1CCOc1ccc2ncc(-c3cc4ccccc4o3)n2n1 [Example I-57, [(2S)-2-(2-{[3-(1-Benzofuran-2-yl)imidazo[1,2-b]-pyridazin-6-yl]oxy}ethyl)pyrrolidin-1-yl](thiophen-3-yl)methanone]
IC50 (MKNK1 [1]): 1.9 nM | IC50 (MKNK1 [2]): 3.9 nM

COCC(=O)N1CCC[C@H]1CCOc1ccc2ncc(-c3cc4ccccc4o3)n2n1 [Example I-58, 1-[(2S)-2-(2-{[3-(1-Benzofuran-2-yl)imidazo[1,2-b]-pyridazin-6-yl]oxy}ethyl)pyrrolidin-1-yl]-2-methoxyethanone]
IC50 (MKNK1 [1]): 2.6 nM | IC50 (MKNK1 [2]): 5.2 nM

O=C(CO)N1CCC[C@H]1CCOc1ccc2ncc(-c3cc4ccccc4o3)n2n1 [Example I-59, 1-[(2S)-2-(2-{[3-(1-Benzofuran-2-yl)imidazo[1,2-b]-pyridazin-6-yl]oxy}ethyl)pyrrolidin-1-yl]-2-hydroxyethanone]
IC50 (MKNK1 [1]): 2.8 nM | IC50 (MKNK1 [2]): 5.3 nM

CC(C)CC(=O)N1CCC[C@H]1CCOc1ccc2ncc(-c3cc4ccccc4o3)n2n1 [Example I-60, 1-[(2S)-2-(2-{[3-(1-Benzofuran-2-yl)imidazo[1,2-b]-pyridazin-6-yl]oxy}ethyl)pyrrolidin-1-yl]-3-methylbutan-1-one]
IC50 (MKNK1 [1]): 2.2 nM | IC50 (MKNK1 [2]): 5.4 nM

O=C(c1ccc[nH]1)N1CCC[C@H]1CCOc1ccc2ncc(-c3cc4ccccc4o3)n2n1 [Example I-61, [(2S)-2-(2-{[3-(1-Benzofuran-2-yl)imidazo[1,2-b]-pyridazin-6-yl]oxy}ethyl)pyrrolidin-1-yl](1H-pyrrol-2-yl)methanone]
IC50 (MKNK1 [1]): 2.9 nM | IC50 (MKNK1 [2]): 6.7 nM

O=C(c1ccccn1)N1CCC[C@H]1CCOc1ccc2ncc(-c3cc4ccccc4o3)n2n1 [Example I-62, [(2S)-2-(2-{[3-(1-Benzofuran-2-yl)imidazo[1,2-b]-pyridazin-6-yl]oxy}ethyl)pyrrolidin-1-yl](pyridin-2-yl)methanone]
IC50 (MKNK1 [1]): 3.5 nM | IC50 (MKNK1 [2]): 6.8 nM

O=C(c1ccc(Cl)cc1)N1CCC[C@H]1CCOc1ccc2ncc(-c3cc4ccccc4o3)n2n1 [Example I-63, [(2S)-2-(2-{[3-(1-Benzofuran-2-yl)imidazo[1,2-b]-pyridazin-6-yl]oxy}ethyl)pyrrolidin-1-yl](4-chlorophenyl)methanone]
IC50 (MKNK1 [1]): 4 nM | IC50 (MKNK1 [2]): 10.1 nM

O=C(NCCOc1ccc2ncc(-c3cc4ccccc4o3)n2n1)c1cccs1 [Example I-64, N-(2-{[3-(1-Benzofuran-2-yl)imidazo[1,2-b]-pyridazin-6-yl]oxy}ethyl)thiophene-2-carboxamide]
IC50 (MKNK1 [1]): 4.7 nM | IC50 (MKNK1 [2]): 10.5 nM

O=C(NCCOc1ccc2ncc(-c3cc4ccccc4o3)n2n1)c1ccccc1Cl [Example I-65, N-(2-{[3-(1-Benzofuran-2-yl)imidazo[1,2-b]-pyridazin-6-yl]oxy}ethyl)-2-chlorobenzamide]
IC50 (MKNK1 [1]): 5.2 nM | IC50 (MKNK1 [2]): 11.8 nM
